Measured values reported in patent US20240174641A1, “HETEROCYCLIC COMPOUNDS CAPABLE OF […]” (Boehringer Ingelheim International GmbH, priority 2022, published 2024).

test system: dog STING (dSTING); assay: Dog differential scanning fluorimetry (DSF) assay, thermal shift of dog STING protein; format: binding; details: DSF (dDSF); 100 μM compound, 3 μM dog STING protein; Tm with ligand minus Tm of protein alone
Description: The protein used for the biophysical experiments was a recombinant dog STING protein comprising its cytosolic cGAMP binding ectodomain. A codon optimized DNA sequence (for expression in Escherichia coli) encoding amino acid residues 149 to 375 of dog STING was synthesized by GeneArt (Regensburg, Germany) and inserted into a pET17b E. coli expression vector. The protein construct encodes an N-terminal 8×His-tag followed by tobacco etch virus protease (TEV) cleavage site and the above STING gene sequence. The resulting protein sequence for the used dog STING protein (SEQ ID No. 1) is listed below:
For expression of the above recombinant dog STING, the construct was transformed into E. coli BL21 DE3 strain and grown in shake flasks in LB-medium at 15° C. Expression was induced by addition of isopropyl β-D-1-thiogalactopyranoside to a final concentration of 1 mM and cultures shaken overnight. Cell pellets were centrifuged and stored at −70° C. until further use. Protein was purified by cell thawing in lysis buffer (20 mM TRIS-HCl, pH 8, 500 mM NaCl, 1 mM DTT, 0.5 mg/ml lysozyme, Complete Protease Inhibitor (Roche) and DNase (Roche)), followed by metal affinity purification using Ni-NTA resins and elution buffer consisting of 20 mM TRIS-HCl, pH 8, 500 mM NaCl, 1 mM DTT, 300 mM imidazole. Cleavage of the His-Tag using TEV-protease took place during dialysis in size exclusion buffer (20 mM TRIS-HCl, pH 8, 100 mM NaCl, 1 mM DTT) over night. To further purify the target protein a reverse Nickel affinity column was used and the flow through was applied to a size exclusion chromatography. The peak fraction was collected and concentrated to 5 mg/mL.
Dye fluorescence is quenched in aqueous environment and increases upon association of the dye with the hydrophobic parts of the unfolding protein. […] The inflection point of the curve represents the “melting” temperature of the protein (Tm) which is calculated numerically using the Boltzmann equation.
The thermal stability of the dog STING protein was measured in assay buffer containing 20 mM Tris, 150 mM NaCl at pH7.5. The assay uses 384-Well qPCR Plates (Catalog #781358, BRAND), Microseal® ‘B’ Adhesive Seals for PCR Plates (Catalog #MSB-1001, BIO-RAD) and was run on a CFX384 Real-Time System (Bio-Rad). A DMSO stock solution of SYPRO orange (SIGMA 55692-500UL) was prepared. Compound stock solutions (10 mM in DMSO) were diluted 1:2 in DMSO to an intermediate compound concentration of 5 mM and then further diluted 1:40 in assay buffer resulting in a compound concentration of 125 μM and 2.5% DMSO. Fluorescent dye stock solution (5000×SYPRO Orange) was then mixed with target protein and buffer to a concentration of 15 μM Protein and 25×SYPRO Orange. 2 μl of this protein-dye-mixture was added to 8 μl compound solution. Final volume was 10 μL. 3-6 well positions were used as negative control (protein with 2% DMSO). The plates were prepared for duplicate measurement and centrifuged for 2 min at 1000 g. In the measurement, 160 cycles of 0.5° C. were used (temperature ramp 15 s/cycle, 15° C. to 95° C.).
Final Assay concentrations for compound characterization were 100 μM compound, 3 μM target protein, 5×SYPRO Orange, and 2% DMSO in 10 μl. All dispensing steps were performed using a HamiltonStar pipetting robot (Hamilton).
Dissociation curves were processed in Bio-Rad CFX Manager. Peak type was set to “negative”. Compound codes for screen were assigned in the plate layout.
Two replicates of TM measurements were averaged, and the standard deviation was calculated. In cases of SD>1.5° C. the measurement was repeated.
The melting point (Tm) obtained for STING protein alone was subtracted from T obtained for protein incubated with ligand to generate ΔTm values.

Row | SMILES | Delta TM [°C]
1 | Cc1cccc2c(-c3cc(F)cc4nn(C)cc34)nn(-c3ccc(N4CCC(C(=O)O)CC4)nc3)c12 [Example 33, 1-(5-{6″-fluoro-2″,7-dimethyl-1H,2″H-[3,4″-biindazol]-1-yl}pyridin-2-yl)piperidine-4-carboxylic acid] | 22.5
2 | Cc1cccc2c(-c3cc(F)cc4nn(C)cc34)nn(-c3ccc(N4CC[C@@H](CC(=O)O)C4)nc3)c12 [Example 35, 2-[(3S)-1-(5-{6″-fluoro-2″,7-dimethyl-1H,2″H-[3,4″-biindazol]-1-yl}pyridin-2-yl)pyrrolidin-3-yl]acetic acid] | 22.5
3 | Cc1cccc2c(-c3cc(F)cc4nn(C)c(F)c34)nn(-c3ccc(N4C[C@@H]5[C@H](C4)[C@H]5C(=O)O)nc3)c12 [Example 75, (1R,5S,6R)-3-(5-{3″,6″-difluoro-2″,7-dimethyl-1H,2″H-[3,4″-biindazol]-1-yl}pyridin-2-yl)-3-azabicyclo[3.1.0]hexane-6-carboxylic acid] | 21.8
4 | CC(=O)N1CC2CCC1CN2c1ccc(-n2nc(-c3c(F)ccc4nn(C)cc34)c3cccc(C)c32)cn1 (stereo not shown) [Example 32] | 31.0
5 | Cc1cccc2c(-c3cc(F)cc4nn(C)cc34)nn(-c3ccc(N4CC5CCC4CC5C(=O)O)nc3)c12 (stereo not shown) [Example 39, 2-(5-{6″-fluoro-2″,7-dimethyl-1H,2″H-[3,4″-biindazol]-1-yl}pyridin-2-yl)-2-azabicyclo [2.2.2]octane-5-carboxylic acid] | −0.3
6 | CC(=O)N1C[C@H]2C[C@@H]1CN2c1ccc(-n2nc(-c3cc(F)cc4nn(C)cc34)c3cccc(C)c32)cn1 [Example 42, 1-[(1R,4R)-5-(5-{6″-fluoro-2″,7-dimethyl-1H,2″H-[3,4″-biindazol]-1-yl}pyridin-2-yl)-2,5-diazabicyclo[2.2.1]heptan-2-yl]ethan-1-one] | 15.8
7 | Cc1cccc2c(-c3cccc4nn(C)c(F)c34)nn(-c3ccc(N4CC5CCC4CC5C(=O)O)nc3)c12 (single isomer, unassigned) [Example 20-2, 2-(5-{3'-fluoro-2',7-dimethyl-1H,2'H-[3,4'-biindazol]-1-yl}pyridin-2-yl)-2-azabicyclo[2.2.2]octane-5-carboxylic acid] | 22.6
8 | Cc1cccc2c(-c3cc(F)cc4nn(C)cc34)nn(-c3ccc(N4CCO[C@H](CC(=O)O)C4)nc3)c12 [Example 37-1, 2-[(2R)-4-(5-{6″-fluoro-2″,7-dimethyl-1H,2″H-[3,4″-biindazol]-1-yl}pyridin-2-yl)morpholin-2-yl]acetic acid] | 16.0
9 | CC(=O)N1CCN(c2ccc(-n3nc(-c4c(F)cc(F)c5nn(C)cc45)c4ccc(F)c(C)c43)cn2)CC1 [Example 71, 1-[4-(5-{5″,6,7″-trifluoro-2″,7-dimethyl-1H,2″H-[3,4″-biindazol]-1-yl}pyridin-2-yl)piperazin-1-yl]ethan-1-one] | 31.3
10 | CC(=O)N1CC2CCC1CN2c1ccc(-n2nc(-c3cc(F)cc4nn(C)cc34)c3cccc(C)c32)cn1 (stereo not shown) [Example 43, 1-[5-(5-{6″-fluoro-2″,7-dimethyl-1H,2″H-[3,4″-biindazol]-1-yl}pyridin-2-yl)-2,5-diazabicyclo[2.2.2]octan-2-yl]ethan-1-one] | 16.0
11 | Cc1cccc2c(-c3cc(F)cc4nn(C)cc34)nn(-c3ccc(N4C[C@@H]5C[C@H]4C[C@H]5C(=O)O)nc3)c12 (single isomer, unassigned) [Example 38-1] | 24.8
12 | Cc1cccc2c(-c3cccc4nn(C)c(F)c34)nn(-c3ccc(N4C[C@@H]5C[C@H]4C[C@H]5C(=O)O)nc3)c12 (racemic) [Example 19, 2-(5-{3″-fluoro-2″,7-dimethyl-1H,2″H-[3,4″-biindazol]-1-yl}pyridin-2-yl)-2-azabicyclo[2.2.1]heptane-5-carboxylic acid] | 34.3
13 | Cc1cccc2c(-c3cccc4nn(C)c(F)c34)nn(-c3ccc(N4CC5CCC4CC5C(=O)O)nc3)c12 (single isomer, unassigned) [Example 20-1, 2-(5-{3'-fluoro-2',7-dimethyl-1H,2'H-[3,4'-biindazol]-1-yl}pyridin-2-yl)-2-azabicyclo[2.2.2]octane-5-carboxylic acid] | 20.9
14 | Cc1cccc2c(-c3c(F)ccc4nn(C)cc34)nn(-c3ccc(N4CCOC(CC(=O)O)C4)nc3)c12 [Example 26-2, 2-[(2S)-4-(5-{5″-fluoro-2″,7-dimethyl-1H,2″H-[3,4″-biindazol]-1-yl}pyridin-2-yl)morpholin-2-yl]acetic acid] | 32.0
15 | CC(=O)N1CCN(c2ccc(-n3nc(-c4cc(F)cc5nn(C)cc45)c4cccc(C)c43)cn2)CC1 [Example 40, 1-[4-(5-{6″-fluoro-2″,7-dimethyl-1H,2″H-[3,4″-biindazol]-1-yl}pyridin-2-yl)piperazin-1-yl]ethan-1-one] | 17.8
16 | Cc1cccc2c(-c3cc(F)cc4nn(C)cc34)nn(-c3ccc(N4CCO[C@@H](CC(=O)O)C4)nc3)c12 [Example 37-2, 2-[(2S)-4-(5-{6″-fluoro-2″,7-dimethyl-1H,2″H-[3,4″-biindazol]-1-yl}pyridin-2-yl)morpholin-2-yl]acetic acid] | 18.0
